Results from US20160338928A1, “SKIN ENGAGING MEMBER COMPRISING A CYCLOHEXANECARBOXAMIDE DERIVATIVE” (The Gillette Company, priority 2015, published 2016).

What was measured:
human TRPM8 = molecular target: T1, human TRPM8 (Homo sapiens, UniProt Q7Z2W7); assay: TRPM8 activation, FLIPR calcium flux in HEK cells stably transfected with human TRPM8; format: cell-based; settings: amino acid derived side chain (alanine) in R (28) and S (776) configuration
T1 construct: expressed in transfected cells
Protocol: […] (human embryonic kidney) cells stably transfected with human TRPM8 are grown in 15 ml growth medium (high glucose DMEM (Dulbecco's Modification of Eagle's Medium) supplemented with 10% FBS (fetal bovine serum), 100 ug/ml penicillin/streptomycin, 5 μg/ml blasticindin, and 100 μg/ml zeocin) in a 75 CM^2 flask for 3 days at 37° C. in a mammalian cell culture incubator set at 5% CO2. Cells are detached with addition of 2 ml of trypsin-EDTA buffer (GIBCO® 25200, Invitrogen) for about 2-3 min. Trypsin is inactivated by addition of 8 ml growth medium. Cells are transferred to a 50 ml tube and centrifuged at 850 rpm for 3 minutes to remove medium. After centrifugation, a pellet of cells is formed in the bottom of the tube separating them from the supernatant solution. […] (Fluo-4 AM is a fluorescent dye used for quantifying cellular Ca^2+ concentrations in the 100 nM to 1 microM range.) At the end of 30 minutes, 45 ml of assay buffer (1×HBSS (Hank's Balanced Salt Solution), 20 mM HEPES (4-(2-Hydroxyethyl)-1-piperazineethanesulfonic acid)) is added to wash cells and the resulting mixture is then centrifuged at 850 rpm for 3 minutes to remove excess buffer and Fluo-4 AM calcium indicator. […]

[1] = concentration where the cooling effect could be clearly recognized; reported by Emberger and Hopp 1987; cited from earlier work

T1 sequence (Q7Z2W7 whole entry): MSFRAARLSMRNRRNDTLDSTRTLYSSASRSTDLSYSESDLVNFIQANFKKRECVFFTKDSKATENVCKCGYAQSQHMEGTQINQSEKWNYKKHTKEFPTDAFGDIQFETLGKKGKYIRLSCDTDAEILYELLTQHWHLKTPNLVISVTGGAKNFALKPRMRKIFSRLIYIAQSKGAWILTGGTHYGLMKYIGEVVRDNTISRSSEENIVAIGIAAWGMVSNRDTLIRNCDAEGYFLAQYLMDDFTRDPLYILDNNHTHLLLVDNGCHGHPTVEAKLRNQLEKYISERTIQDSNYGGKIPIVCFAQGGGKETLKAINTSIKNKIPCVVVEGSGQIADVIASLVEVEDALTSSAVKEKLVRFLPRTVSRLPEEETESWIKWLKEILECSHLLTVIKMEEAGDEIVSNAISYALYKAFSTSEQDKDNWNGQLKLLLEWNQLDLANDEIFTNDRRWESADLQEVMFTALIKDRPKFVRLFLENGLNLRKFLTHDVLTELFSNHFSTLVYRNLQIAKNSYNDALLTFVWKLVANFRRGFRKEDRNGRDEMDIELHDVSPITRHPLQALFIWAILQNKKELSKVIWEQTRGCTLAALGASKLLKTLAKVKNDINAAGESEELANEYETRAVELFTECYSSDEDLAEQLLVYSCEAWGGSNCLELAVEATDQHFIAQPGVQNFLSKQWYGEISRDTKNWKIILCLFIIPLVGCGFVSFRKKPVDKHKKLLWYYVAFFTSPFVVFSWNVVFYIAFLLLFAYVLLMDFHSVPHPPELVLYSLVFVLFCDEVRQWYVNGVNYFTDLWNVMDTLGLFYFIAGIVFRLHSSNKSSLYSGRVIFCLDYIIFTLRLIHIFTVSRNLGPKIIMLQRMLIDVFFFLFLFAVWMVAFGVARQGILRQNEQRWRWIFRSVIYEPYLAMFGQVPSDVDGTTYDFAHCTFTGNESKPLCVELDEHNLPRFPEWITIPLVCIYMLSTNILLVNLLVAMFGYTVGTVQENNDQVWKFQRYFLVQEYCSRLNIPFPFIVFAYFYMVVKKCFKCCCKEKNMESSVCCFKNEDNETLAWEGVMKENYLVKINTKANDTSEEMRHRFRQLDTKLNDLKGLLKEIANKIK

activity towards the receptor (human TRPM8)	Structure (SMILES)	cooling threshold [1]
excellent activity	COc1ccc(NC(=O)[C@@H]2C[C@H](C)CC[C@H]2C(C)C)c(NC(=O)[C@H](C)N)c1 [Compound 776]	–
excellent activity	CC(C)[C@@H]1CC[C@@H](C)C[C@H]1C(=O)NCC(NC(=O)[C@@H](C)N)c1ccccc1 (some centres unmarked) [Compound 28]	–
–	CC(C)[C@@H]1CC[C@@H](C)C[C@@H]1O [d-neomenthol]	about 25,000 ppb
–	CC(C)[C@@H]1CC[C@@H](C)C[C@@H]1O [Compound 1-neomenthol, 1-neomenthol]	about 3,000 ppb
–	CC(C)[C@@H]1CC[C@@H](C)C[C@H]1O [L-menthol]	about 800 ppb
